# “Also recorded” adds a separate entry of the source. *1 amine or outer side, *2 acyl side, *3 side chain or, on linkers, in order; H or OH if unused. Where a SMILES comes first, the peptide text is derived from it. Where no end group is shown, it is not given here. [ ]: non-standard residue; d: D form. X1 = C=CC(C)(C)n1cc(C[C@@H](N[*:1])C(=O)[*:2])c2ccccc21; X3 = CCCCCn1cc(C[C@@H](N[*:1])C(=O)[*:2])c2ccccc21; X4 = CCCn1cc(C[C@@H](N[*:1])C(=O)[*:2])c2ccccc21; dTrp(1-Bu) = CCCCn1cc(C[C@@H](N)C(=O)O)c2ccccc21; X2 = CCn1cc(C[C@@H](N[*:1])C(=O)[*:2])c2ccccc21; dTrp(1-Me) = Cn1cc(C[C@@H](N)C(=O)O)c2ccccc21; dNMeF = CN[C@H](Cc1ccccc1)C(=O)O
# What was measured:
# H69 cells = experiment: Cell viability assay using resazurin dye, H69 cells; type: cell-based, human; settings: for IC50: 48 h; for fold enhancement in cytotoxicity compared to tert-Prenyl^4th-NH2 (2): H69 cell line
# Experimental: (§1) Cell viability was evaluated by treating H69 and DMS79 cells with peptides 13–20 in the 0.1–30 μM range for 48 h, with subsequent use of the resazurin dye cell viability assay. IC50 values (Table 1) for all the peptides were derived from the dose response curves (Fig. S24). Table 1 also presents the IC50 values obtained for 1 and 2 previously. RPMI-1640 (with L-glutamine and NaHCO3) was obtained from Sigma-Aldrich. Heat Inactivated Fetal Bovine Serum (FBS) was obtained from Life Technologies. H69 and DMS79 SCLC cell lines were obtained from as previously stated. Cells were grown in 10% v/v FBS/RPMI-1640 (complete medium) and incubated at 37 °C in humidified air atmosphere of 5% CO2. Both, H69 and DMS79 cells are suspension cells and grow in aggregates. For the experimental part, cells were re-suspended in fresh complete medium. Dulbecco's PBS (without calcium chloride and magnesium chloride) and Resazurin sodium salt were obtained from Sigma-Aldrich. The peptide concentrations were calculated accurately using UV/VIS Spectrometer Perkin Elmer instrument and dilution of the stock concentration was made using 50% v/v FBS/sterile saline. Concentrations prepared were ranged from 0.6 to 0.002 mM. Cells were seeded in 96-well plates at a seeding density of 1 × 10^4 cells/190 μl/well in triplicates. Peptides were then added on the same day and incubated as the above conditions stated in Section 5.1. The amount of peptide solution added into each well was 10 μl, resulting in a final well concentration of 30 to 0.1 μM. Untreated control samples were also prepared. Samples for background fluorescence for the resazurin dye were also prepared using only complete medium. After 48 h incubation, resazurin dye (20 μl; 0.125 mg/ml in PBS) was added to each well and incubated as the above conditions stated in Section 5.1 for 5 h. Then, fluorescence readings were recorded using a Tecan Safire plate reader and % viability calculated. Assays were repeated three independent times. Graphs were generated using GraphPad Prism 7.00 software.
# DMS79 cells = experiment: Cell viability assay using resazurin dye, DMS79 cells; type: cell-based, human; settings: for IC50: 48 h; for fold enhancement in cytotoxicity compared to tert-Prenyl^4th-NH2 (2) / fold reduction in potency/cytotoxicity compared to 16: DMS79 cell line
# Experimental: as §1
# neat mouse plasma = settings: 37 °C, up to 48 h
# [1] = S9 liver fraction (from mouse (CD-1), male, 20 mg/ml protein basis) with cofactors NADPH, UDPGA, GSH and PAPS; settings: up to 3 h
# [2] = Stability in neat mouse plasma (RP-HPLC); type: in vitro ADME
# Text: When optimising for functional activity there is also a need to assess whether the desired modification will negatively affect the stability of the peptide. Characterisation of the metabolism of peptides is useful to improve their stability in vivo. The finding that a carboxylic acid group, instead of the usual amide, at the C-terminus inactivates the cytotoxicity of 16 (results of 20 - Table 1) may compromise its use in vivo as protein de-amidation reactions are widespread in plasma. Peptides 16 and 19, being the most cytotoxic peptides, were exposed to the conditions of in vitro metabolism in plasma. Peptide 20 lacking the amide group was used as a control. Peptides 16, 19 and 20 were incubated in neat mouse plasma at 37 °C for 48 h. Peptide 2, previously tested over a shorter incubation time, was included for benchmarking purpose.
# Peptides were added to neat mouse plasma at a concentration of 400 μg/ml and incubated as the above conditions stated in Section 5.1. Aliquots (20 μl) were taken at 0, 3, 24 and 48 h. To the 20 μl sample, 80 μl of solution B was added and left for 5 min, prior to 1 min sonication to precipitate plasma proteins. The sample was then centrifuged for 5 min at full speed. Then 80 μl of the supernatant was added to 120 μl of solution A and transferred into a HPLC microvial to be analysed using the C8 column. A linear gradient elution was made starting with 100% of solution A and ending after 30 mins with 100% of solution B, with a flow rate of 1 ml/min and followed at λmax 220 nm. The injection volume was 36 μl. Assays were repeated three independent times. HPLC microvials at 0 and 48 h were characterised by ESIMS using the instrument stated in Section 4.1.
# [3] = Stability in S9 liver fraction from mouse with cofactors; type: in vitro ADME; settings: period of 3 h
# Experimental: Peptides 16 and 19 were further subjected to the S9 liver fraction from mouse in the presence of cofactors for a period of 3 h. This would give further insight into the stability of the peptides towards Phase I and Phase II metabolising enzymes.
# Eppendorf® tubes were used for sample preparations. Chemicals, HPLC microvials, S9 liver fraction (from mouse (CD-1), male, 20 mg/ml protein basis, vial of 1.0 mL) and co-factors: beta-nictoinamide adenine dinucleotide disodium salt hydrate (NADPH), uridine 5’-diphosphoglucuronic acid trisodium salt (UDPGA), L-glutathione (GSH) and adenosine 3’-phosphate 5’-phosphosulfate lithium salt hydrate (PAPS) were obtained from Sigma-Aldrich. RP-HPLC analysis was performed using the instrument, C8 column and solutions (A and B) stated in Section 4.2.
# The preparation and analysis of the samples for peptides stability in the S9 liver fraction from mouse was similar to that for the mouse plasma studies, except that addition of cofactors for enzymes activation was required and the aliquots were taken at 0, 1, 2 and 3 h. The cofactors were added to initiate the study as previously described. Briefly, stock concentrations of NADPH (40 mM), UDPGA (20 mM), GSH (2 mM) and PAPS (2 mg/ml) were prepared using Tris buffer (200 mM) (pH 7.4) containing 2 mM magnesium chloride. […]
# serine protease = settings: cited from earlier work
compound,measurement,setting,value
CCn1cc(C[C@@H](NC(=O)[C@H](Cc2ccccc2)NC(=O)[C@@H](Cc2c[nH]c3ccccc23)NC(=O)[C@@H](Cc2ccccc2)NC)C(=O)N[C@@H](CC(C)C)C(N)=O)c2ccccc21 [Peptide 14] (H-[dNMeF][dW]F[X2]L-NH2),IC50,H69 cells,1830 ± 30 nM
same,IC50,DMS79 cells,1920 ± 30 nM
CN[C@H](Cc1ccccc1)C(=O)N[C@H](Cc1c[nH]c2ccccc12)C(=O)N[C@@H](Cc1ccccc1)C(=O)N[C@H](Cc1cn(C)c2ccccc12)C(=O)N[C@@H](CC(C)C)C(N)=O [Peptide 13] (H-[dNMeF][dW]F[dTrp(1-Me)]L-NH2),IC50,H69 cells,3980 ± 220 nM
same,times less active than 2,H69 cells; H69,~1.4 times
same,IC50,DMS79 cells,4030 ± 310 nM
DMePhe-DTrp-Phe-DTrp(N-tert-prenyl)-Leu-NH2 (H-[dNMeF][dW]F[X1]L-NH2; SMILES C=CC(C)(C)n1cc(C[C@@H](NC(=O)[C@H](Cc2ccccc2)NC(=O)[C@@H](Cc2c[nH]c3ccccc23)NC(=O)[C@@H](Cc2ccccc2)NC)C(=O)N[C@@H](CC(C)C)C(N)=O)c2ccccc21),cleaved bond,neat mouse plasma,"Leu-NH2, 3 hrs"
CCCCCn1cc(C[C@@H](NC(=O)[C@H](Cc2ccccc2)NC(=O)[C@@H](Cc2c[nH]c3ccccc23)NC(=O)[C@@H](Cc2ccccc2)NC)C(=O)N[C@@H](CC(C)C)C(N)=O)c2ccccc21 [Peptide 17] (H-[dNMeF][dW]F[X3]L-NH2),IC50,H69 cells,1800 ± 100 nM
same,IC50,DMS79 cells,2370 ± 60 nM
DMePhe-DTrp-Phe-DTrp(N-butyl)-Leu-NH2 (H-[dNMeF][dW]F[dTrp(1-Bu)]L-NH2; SMILES CCCCn1cc(C[C@@H](NC(=O)[C@H](Cc2ccccc2)NC(=O)[C@@H](Cc2c[nH]c3ccccc23)NC(=O)[C@@H](Cc2ccccc2)NC)C(=O)N[C@@H](CC(C)C)C(N)=O)c2ccccc21),not cleaved,[1],completely stable in S9 liver fraction (3 h)
same,cleaved bond,neat mouse plasma,"Leu-NH2, 3 hrs"
CCCn1cc(C[C@@H](NC(=O)[C@H](Cc2ccccc2)NC(=O)[C@@H](Cc2c[nH]c3ccccc23)NC(=O)[C@@H](Cc2ccccc2)NC)C(=O)N[C@@H](CC(C)C)C(N)=O)c2ccccc21 [Peptide 15] (H-[dNMeF][dW]F[X4]L-NH2),IC50,H69 cells,1570 ± 100 nM
same,IC50,DMS79 cells,1910 ± 30 nM
CCCCn1cc(C[C@@H](NC(=O)[C@H](Cc2ccccc2)NC(=O)[C@@H](Cc2c[nH]c3ccccc23)NC(=O)[C@@H](Cc2ccccc2)NC)C(=O)N[C@@H](CC(C)C)C(=O)O)c2ccccc21 [Peptide 20] (H-[dNMeF][dW]F[dTrp(1-Bu)]L-OH),IC50,H69 cells,> 30000 nM
same,% (± SE) of parent peptide to degradation product(s) in plasma studies,"[2]; 37 °C, 0 hr, n = 3",100%
same,% (± SE) of parent peptide to degradation product(s) in plasma studies,"[2]; 37 °C, 3 hrs, n = 3",100%
same,% (± SE) of parent peptide to degradation product(s) in plasma studies,"[2]; 37 °C, 24 hrs, n = 3",100%
same,% (± SE) of parent peptide to degradation product(s) in plasma studies,"[2]; 37 °C, 48 hrs, n = 3",100%
same,degradation in plasma (in words),"[2]; 37 °C, up to 48 h, RP-HPLC and MS",no sign of degradation; also recorded: complete stability in plasma
same,IC50,DMS79 cells,> 30000 nM
"CCCCn1cc(C[C@@H](NC(=O)[C@H](Cc2ccccc2)NC(=O)[C@@H](Cc2c[nH]c3ccccc23)NC(=O)[C@@H](Cc2ccccc2)NC)C(=O)N[C@@H](CC(C)C)C(N)=O)c2ccccc21 [Peptide 16, DMePhe-DTrp-Phe-DTrp(N-butyl)-Leu-NH2] (H-[dNMeF][dW]F[dTrp(1-Bu)]L-NH2)",IC50,H69 cells,1010 ± 20 nM
same,fold enhancement in cytotoxicity compared to tert-Prenyl^4th-NH2 (2),H69 cells,~3 fold
same,% (± SE) of parent peptide to degradation product(s) in plasma studies,"[2]; 37 °C, 0 hr, n = 3",100%
same,% (± SE) of parent peptide to degradation product(s) in plasma studies,"[2]; 37 °C, 3 hrs, n = 3",94.30 ± 0.20%
same,% (± SE) of parent peptide to degradation product(s) in plasma studies,"[2]; 37 °C, 24 hrs, n = 3",> 80%
same,% (± SE) of parent peptide to degradation product(s) in plasma studies,"[2]; 37 °C, 24 hrs, n = 3, 1440 min",80.30 ± 0.32%
same,% (± SE) of parent peptide to degradation product(s) in plasma studies,"[2]; 37 °C, 48 hrs, n = 3",68.47 ± 0.23%
same,IC50,DMS79 cells,1430 ± 140 nM
same,fold enhancement in cytotoxicity compared to tert-Prenyl^4th-NH2 (2),DMS79 cells,~3 fold
same,stability in S9 liver fraction (in words),[3],completely stable
[dR]PKP[dF]Q[dW]F[dW]LL-NH2,cleaved bond,serine protease,"Leu-NH2, major"
CCCCn1cc(C[C@@H](NC(=O)[C@@H](Cc2ccccc2)NC)C(=O)N[C@@H](Cc2ccccc2)C(=O)N[C@H](Cc2c[nH]c3ccccc23)C(=O)N[C@@H](CC(C)C)C(N)=O)c2ccccc21 [Peptide 18] (H-[dNMeF][dTrp(1-Bu)]F[dW]L-NH2),IC50,H69 cells,4050 ± 170 nM
same,IC50,DMS79 cells,3880 ± 150 nM
same,fold reduction in potency/cytotoxicity compared to 16,DMS79 cells,3–4 fold
"C=CC(C)(C)n1cc(C[C@@H](NC(=O)[C@H](Cc2ccccc2)NC(=O)[C@@H](Cc2c[nH]c3ccccc23)NC(=O)[C@@H](Cc2ccccc2)NC)C(=O)N[C@@H](CC(C)C)C(N)=O)c2ccccc21 [Peptide 2, DMePhe-DTrp-Phe-DTrp(N-tert-prenyl)-Leu-NH2] (H-[dNMeF][dW]F[X1]L-NH2)",% (± SE) of parent peptide to degradation product(s) in plasma studies,"[2]; 37 °C, 0 hr, n = 3",100%
same,% (± SE) of parent peptide to degradation product(s) in plasma studies,"[2]; 37 °C, 24 hrs, n = 3, listed as tert-Prenyl^4th-NH2",~58%
same,"metabolised at 24 h, 400 μg/ml","[2]; after 24 h exposure, read-out: degraded in plasma",~42%
CCCCn1cc(C[C@@H](NC(=O)[C@H](Cc2ccccc2)NC(=O)[C@@H](Cc2cn(CCCC)c3ccccc23)NC(=O)[C@@H](Cc2ccccc2)NC)C(=O)N[C@@H](CC(C)C)C(N)=O)c2ccccc21 [Peptide 19] (H-[dNMeF][dTrp(1-Bu)]F[dTrp(1-Bu)]L-NH2),IC50,H69 cells,630 ± 50 nM
same,fold enhancement in cytotoxicity compared to tert-Prenyl^4th-NH2 (2),H69 cells,~4.5 fold
same,% (± SE) of parent peptide to degradation product(s) in plasma studies,"[2]; 37 °C, 0 hr, n = 3",100%
same,% (± SE) of parent peptide to degradation product(s) in plasma studies,"[2]; 37 °C, 3 hrs, n = 3",98.67 ± 0.69%
same,% (± SE) of parent peptide to degradation product(s) in plasma studies,"[2]; 37 °C, 24 hrs, n = 3",> 80%
same,% (± SE) of parent peptide to degradation product(s) in plasma studies,"[2]; 37 °C, 24 hrs, n = 3, 1440 min",89.73 ± 0.68%
same,% (± SE) of parent peptide to degradation product(s) in plasma studies,"[2]; 37 °C, 48 hrs, n = 3",81%
same,% (± SE) of parent peptide to degradation product(s) in plasma studies,"[2]; 37 °C, 48 hrs, n = 3, 2880 min",81.00 ± 2.25%
same,IC50,DMS79 cells,2310 ± 120 nM
same,fold enhancement in cytotoxicity compared to tert-Prenyl^4th-NH2 (2),DMS79 cells,~2 fold
same,fold reduction in potency/cytotoxicity compared to 16,DMS79 cells,~1.6 fold
same,stability in S9 liver fraction (in words),[3],completely stable

# — PMC5500990 (European Journal of Medicinal Chemistry, 2017)
